Consider three molecules from US20230263762A1, “COMPOSITION AND METHOD FOR TREATING INFECTIONS” (priority 2020, published 2023).

One test has as its system SARS-CoV-2. Description: Direct injection of Sx mixture or its components into virus suspension, Vero E6 plaque assay. Format: cell-based. Conditions: for activity of the component alone: direct injection (FIGS. 20 and 21).
Test [1] deals with SARS-CoV-2 (USA-WA1/2020 strain). Description: Direct injection into viral suspension, plaque assay on Vero E6 cells. Format: cell-based. The note with it: for reduction of viral burden by individual components: 1.4 and 3.9 µls propionic acid, 0.6 and 1.1 µls isoamyl hexanoates; for decline in viral burden: 360 mins post-addition.
Test [2] has as its target RBD of the SARS-CoV-2 spike protein to ACE2 (Severe acute respiratory syndrome coronavirus 2, UniProt P0DTC2). Conditions: cited from earlier work.
Setting [3] is: propionic acid alone, direct injection.

In the case of isoamyl hexanoates, in the test on SARS-CoV-2, the “activity of the component alone” value was “no lasting activity”. In addition, the “reduction in activity of the virus” value in the test with SARS-CoV-2 (esters alone (1.1 µL), at about 100 min) is given as roughly 1 log. The “reduction in virus activity” value in the test on SARS-CoV-2 (esters alone, highest concentration of 4.6 µL, over 300 minutes) was 1 order of magnitude. In the test with SARS-CoV-2 (esters alone, within about 30 min, over the range of concentrations tested), the “general reduction in virus activity” value is recorded as roughly 1 log. In test [1], the “reduction of viral burden by individual components” value is “minimal reduction of viral burden”. Further, in test [1] (direct injection, all treatment arms (FIG. 7B)), the “suppression of SARS-CoV-2 replication, component alone” value is on record as “substantially less effective”.
GluGluLeuGlu: the “reduction of the binding affinity of RBD to ACE2” value in test [2] (addition of peptide to SARS-CoV-2) was 34%. Further, the “reduction of virus activity” value in test [2] (peptide added to the virus) is on record as 34%.
On to `CCC(=O)O` [propionic acid], for which, in the test on SARS-CoV-2 (acid alone at 3.9 µL), the “reduction in activity of the virus” value is “about 0.5 log”. The “activity of the component alone” value in the test on SARS-CoV-2 is on record as “only has marginal biological activity”. Besides, the “time to complete inactivation of the virus” value with SARS-CoV-2 (propionic acid alone at 7.7 µL) stood at 220 min. Moreover, the “volume of acid necessary for relative immediate inactivation of the virus” value in the test with SARS-CoV-2 (setting [3]) was “at least 15.4 µL”. Further, the “volume of acid necessary to get any appreciable activity” value in the test with SARS-CoV-2 (setting [3]) is given as “up to 7.7 µL”. Moreover, the “reduction of viral burden by individual components” value in test [1] is “minimal reduction of viral burden”. For the same molecule, the “decline in viral burden” value in test [1] (1.4 µls alone) was 0.29 log10 PFU/ml; in test [1] (3.9 µls alone) it was 0.98 log10 PFU/ml. For the same molecule, the “time to undetectable levels of virus” value in test [1] (7.7 µl alone, direct injection) is reported as 240 min. Besides, in test [1] (15.4 µls alone, direct injection), the “time to undetectable viral burden” value was determined as 15 min. For the same molecule, in test [1] (direct injection, entire 360 min study (AUC of viral burden-time), 37° C.), the “EC50 volume over the entire study” value is 6.2 µls.
